Series [1] relates to HepG2 cells. As to the kind of experiment: Cellular MB uptake by competitive ELISA. The series is classed as in vitro ADME. The note with it: 2 and 24 hours. On the procedure:
Cellular MB uptake was determined from cell lysates incubated for 2 or 24 h with MB at different concentrations by a competitive ELISA using a monoclonal anti-MB antibody.
Competitive ELISA. All 86 TCS were diluted 1:10 with buffer (PBS, 5% FCS, 0.01% sodium acide). 50 μl of each TCS were pre-incubated with 50 μl MB solution (1000 ng/ml in buffer) or buffer overnight. The experiments were run in duplicates. 50 μl of the pre-incubated sample were added to ELISA plates coated with MB as used for screening. After 10 min, the plates were washed, bound antibodies against MB were detected with HRP conjugated mAbs against the rat IgG isotypes and HRP was visualized with TMB. MAbs that recognized free MB (no signal when pre-incubated with MB, positive signal in the buffer control) were further analyzed in a serial dilution of MB (1000 ng/ml to 2 ng/ml). The four mAbs that best recognized free MB were established (10610, 12D9, 18H7, 21G5, all of rat IgG2a subclass). To increase the sensitivity of the test system, the TCS of the established hybridomas were titrated on ELISA plates coated with MB. The titer of […] was far better (1:1260) than of 12D9 (1:320), 18H7 (1:10) and 21G5 (1:320).
For the test system 10610 was used at a dilution of 1:500 and the pre-incubation time reduced to one hour.
A general note: ELISA stands for enzyme-linked immunosorbent assay.

The test system of series [2] is HepG2 cells. As to the kind of experiment: Neutral red cell toxicity assay. The series is classed as cell-based. As to conditions: 24 hours, 0.05 to 1 mM Zinc-MB. On the procedure: Neutral red cell toxicity assay was done as described elsewhere (Repetto et al., Nat Protoc 3, 1125-1131 (2008)). In brief, 2×10^4 cells were incubated for 24 hours either with medium alone (containing 2% FCS, negative control), 0.05 to
1 mM Zinc-MB, or 0.25 mM CCCP as mitochondriotoxic positive control and subsequently analyzed by neutral red.

Series [3] concerns HepG2 cells. In words: Mitochondrial membrane potential staining of HepG2 cells. The series is classed as cell-based. As to conditions: 500 μM MB. On the procedure:
For immunofluorescence staining, 2×10^4 cells were incubated with either medium alone, 500 μM MB or 250 μM CCCP in black 96-well plates with clear glass bottom. Staining was done by 1.6 μM Hoechst 33342 (ex 360-400 nm, em 410-480 nm), 300 nM MitoTracker® red (ex 620-640 nm, em 650-760 nm), and 1 μM nonyl acridine orange (NAO, ex 460-490 nm, em 500-550 nm) for 40 minutes at 37° C. After a washing step, fluorescence was analyzed.

For the next series, the system named is LPP−/− livers. In words: Two hour LPP−/− liver perfusion. Also on record: species or system rat. On the procedure: LPP−/− livers (animal age 79-83 days) were perfused in a single pass manner with Krebs-Ringer bicarbonate solution containing 5 mM glucose (Beuers et al., J Biol Chem 278, 17810-17818 (2003)). The medium was gassed with 95% O2/5% CO2 and kept at 37° C. Rat livers were perfused via the portal vein (Beuers et al., log. cit.), the right lateral liver lobe was ligated and its copper content served as pre-perfusion control (Beuers et al., Hepatology 33, 1206-1216 (2001)). After cannulation of the bile duct a 20 min sample of bile was collected before the copper chelators were continuously added to the perfusion medium. Bile and outflow perfusate were collected in 10 min intervals as described elsewhere (Beuers et al., log. cit.). D-PA*HCl (20 mg/108 μmol), TETA*2HCl (20 mg/91 μmol), TTM*2NH4 (10 mg/38 μmol) and MB (40 mg/35 μmol) were each dissolved in 50 ml 0.9% NaCl, and continuously added to the perfusion medium via a perfusion pump (Perfusor, Braun, Melsungen) within 2 hours. The molar ratios of the chelators applied was MB 1:D-PA 3.1:TETA 2.6:TTM 1.1. LDH in the outflow perfusate was measured every ten minutes as described (Beuers et al., log. cit.). Control perfusions were done with Krebs-Ringer bicarbonate solution only.

In another series the test system is LPP+/− rats. The note with it: rat, in vivo. On the procedure: (§1) LPP rats were treated with MB either by daily i.p. injections for 3 or 5 consecutive days, or twice daily i.p. injections for 8 consecutive days at a dose of 150 mg/kg bw or 4 days via the drinking water with D-PA at a dose of 100 mg/kg bw/d or TETA at 480 mg/kg bw/d, respectively (Togashi et al., Hepatology 15, 82-87 (1992)). Based on a mean copper content of 250 μg/g w.w. in Atp7b−/− rat livers at the age of treatment start (Zischka et al., log. cit.), a LPP−/− rat liver of 8 g w.w. contains around 31.5 μmol copper. Single MB doses were chosen equimolar to this copper amount. […] Assuming 40 ml water intake per day for a rat weighing 250 g this translates to a dose of 480 mg/kg bw/d. With respect to the mean liver copper content in LPP−/− rats aged 85 days, the molar ratios of the chelators applied was MB 1:D-PA 4.3:TETA 17.4, respectively. For the intravenous MB application (150 mg/kg bw), catheters connected to a PinPort™ (Instech Laboratories, Inc., USA) were inserted in the femoral vein of the rat, fixed with non-absorbable sutures and subcutaneously tunneled and exteriorized through a skin incision made between the shoulders.

Series [4] is described as follows: MB in serum after i.p. injection. The series is classed as in vivo, rat. On the procedure: as §1, with “For the intravenous MB application (150 mg/kg bw), catheters connected to a PinPort™ (Instech Laboratories, Inc., USA) were inserted in the femoral vein of the rat, fixed with non-absorbable sutures and subcutaneously tunneled and exteriorized through a skin incision made between the shoulders.” left out
Competitive ELISA. […] After 10 min, the plates were washed, bound antibodies against MB were detected with HRP conjugated mAbs against the rat IgG isotypes and HRP was visualized with TMB. MAbs that recognized free MB (no signal when pre-incubated with MB, positive signal in the buffer control) were further analyzed in a serial dilution of MB (1000 ng/ml to 2 ng/ml). […]

The test system of a further series is diseased LPP−/− rats. As to the kind of experiment: Acute rescue regimen in diseased LPP−/− rats. The series is classed as in vivo, rat.
A short description of series [5]: Stability analysis of MB by absorbance of oxazolone rings. As to conditions: time and/or temperature. The series is classed as physicochemical. On the procedure: (C) Stability analysis of metal free MB and Zn-loaded MB followed by absorbance measurements of their two metastable oxazolone rings (OxaA/ZnA at 394 nm and OxaB/ZnB at 340 nm)^57 at 37° C.
HepG2 cells were kept in MEM with 2% FCS. […] Therefore, Zn-MB, generated by preparing a 20 mM MB solution and adding an equimolar concentration of Zn solution under pH control, was used in cell culture experiments.

Series [6] concerns the target mitochondrial respiratory complex IV (Rattus norvegicus, UniProt P00406+P05503).
Another series relates to metallothionein. As to conditions: in vitro and in vivo experiments; cited from earlier work.

Molecules are shown by their SMILES. “Also recorded” adds a separate entry of the source. Where two headings read alike, the source gives them in different places. Numbered stars: 1 amine (or outer) side, 2 acyl side, 3 side chain; on linkers, the order of the positions; unused ones are H or OH. Bridge positions count the residues as written; N and C are the ends. Square brackets hold non-standard residues; d marks the D form. Peptide text beside a SMILES is read from it. * marks the point of attachment. X2 = O=C1OC(C2CCCN2[*:1])=NC1C(=S)NC(CO)C(=O)[*:2]; X1 = CC(C)CC(=O)C1=NC(C(=S)NCC(=O)*)C(=O)O1

Sequence of mitochondrial respiratory complex IV (P00406 whole entry, other chains not shown): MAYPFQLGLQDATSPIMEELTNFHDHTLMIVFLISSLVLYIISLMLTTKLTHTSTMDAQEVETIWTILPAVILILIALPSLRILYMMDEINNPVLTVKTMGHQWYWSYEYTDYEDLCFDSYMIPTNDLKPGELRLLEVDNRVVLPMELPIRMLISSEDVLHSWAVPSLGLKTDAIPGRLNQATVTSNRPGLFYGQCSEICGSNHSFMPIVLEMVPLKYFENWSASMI

As for `CSCCC(NC(=O)C1CSSCC(NC(=O)C(CO)NC(=O)CNC(=S)C2N=C(C(=O)CC(C)C)OC2=O)C(=O)NC(Cc2ccc(O)cc2)C(=O)N2CCCC2C2=NC(C(=O)O2)C(=S)NC(CO)C(=O)N1)C(=O)O` (centres unmarked) [MB] (X1-SCY[X2]CM-OH; disulfide 2-5; configuration not given here), the “intracellular MB uptake” value with HepG2 cells [1] is “taken up in a dose dependent manner”. Moreover, the “cytotoxic effects (neutral red)” value with HepG2 cells [2] is “only observed at millimolar MB concentrations”. The mitochondrial membrane potential entry in the series with HepG2 cells [3] is given as “reduced the mitochondrial membrane potential only partially; also recorded: only intermediate phases of mitochondrial membrane potential loss”. Moreover, the “copper released into bile” value in the series on LPP−/− livers (MB 0.7 μM, TTM 0.8 μM, D-PA 2.2 μM, TETA 1.8 μM) is on record as “tenfold higher amounts of copper; also recorded: tenfold higher copper amounts into bile”. For the same compound, the “liver copper content after perfusion” value with LPP−/− livers (vs pre-perfusion/buffer control) is listed as “significantly reduced the copper content; also recorded: significantly reduces the liver copper content”. Also, in the series on LPP+/− rats, the “body weight, liver copper concentration, serum AST and bilirubin” value is recorded as “remained within the physiological range”; the signs of toxicity entry is reported as “did not exhibit any signs of toxicity”. The “time MB detectable in the serum” value in series [4] was 30 min. For the same compound, the “time MB detectable in the serum” value in [4] (n=2) is “half an hour”. In addition, the body weight result in the series with diseased LPP−/− rats (16 i.p. injections) is given as “regained weight”. Also, in the series with diseased LPP−/− rats (end of treatment regimen), the copper values result was “exceptionally low copper values”; the “serum AST and bilirubin” value was “normal serum AST and bilirubin”. Besides, the weight regained with diseased LPP−/− rats (moribund animal no. 3) turned out to be 29%. Further, the survival result with diseased LPP−/− rats (two daily MB i.p. injections for one week (16 in total), four rats) is “All animals survived”. For the same compound, in [5], the decay result is on record as “susceptible to time- and/or temperature-dependent decay”. Moreover, the “toxicity to copper-dependent respiratory complex IV activity” value in [6] was “significantly less toxic than TTM”. Further, the “removal of Cu from metallothionein” value with metallothionein was “has been shown to remove Cu from metallothionein”.

The values are drawn from patent publication US11000568B2, “Means and methods for treating copper-related diseases” (HELMHOLTZ ZENTRUM MÜNCHEN—DEUTSCHES FORSCHUNGSZENTRUM FÜR …, priority 2015, dated 2021).
